In the assay the test system is immunoglobulin light chain protein WIL-FL T46L. Description: Differential scanning fluorimetry (thermal shift) assay. It counts as binding. The conditions noted are these: Table A; temperature shift [Tm]compound-[Tm]vehicle; recombinant WIL-FL T46L. A general note: Differential scanning fluorimetry follows unfolding on heating by fluorescence.
Turning to `Cc1cc(N2CC[C@](C)(c3ccccc3)C2)cn2nc(C(=O)NC3(CO)CCOCC3)nc12` [Compound 131], the DSF result is “***** (>2.5° C.=*****)”.
`Cc1cc(N2CC[C@](C)(c3ccccc3)C2)cn2nc(C(=O)NC34CC(O)(C3)C4)nc12` [Compound 132]: the DSF entry is “***** (>2.5° C.=*****)”.
As to `Cc1noc([C@@H]2C[C@H](NC(=O)c3nc4c(C)cc(N5CC[C@](C)(c6ccccc6)C5)cn4n3)CN2)n1` [Compound 133], the DSF result is given as “***** (>2.5° C.=*****)”.
For `Cc1cc(N2CC[C@](C)(c3ccccc3)C2)cn2nc(C(=O)N[C@H]3CNC[C@@H]3C(=O)O)nc12` [Compound 134], the DSF result is on record as “***** (>2.5° C.=*****)”.
Consider `Cc1cc(N2CC[C@](C)(c3ccccc3)C2)cn2nc(C(=O)N3CCC4NC(=O)CC43)nc12` (some centres unmarked) [Compound 135], for which the DSF entry is given as “***** (>2.5° C.=*****)”.
Turning to `Cc1cc(N2CC[C@](C)(c3ccccc3)C2)cn2nc(C(=O)NCC(C)(C)C(=O)O)nc12` [Compound 136], the DSF entry is “***** (>2.5° C.=*****)”.
In the case of `Cc1cc(N2CC[C@](C)(c3ccccc3)C2)cn2nc(C(N)=O)nc12` [Compound 137], the DSF entry is given as “***** (>2.5° C.=*****)”.
For the compound `COCC(C)(O)CNC(=O)c1nc2c(C)cc(N3CC[C@](C)(c4ccccc4)C3)cn2n1` (some centres unmarked) [Compound 138], the DSF result was “***** (>2.5° C.=*****)”.
For `Cc1cc(N2CC[C@](C)(c3ccccc3)C2)cn2nc(C(=O)N[C@@H](C)CO)nc12` [Compound 139], the DSF entry was “***** (>2.5° C.=*****)”.
As to `CO[C@@H]1CNC[C@H]1NC(=O)c1nc2c(C)cc(N3CC[C@](C)(c4ccccc4)C3)cn2n1` [Compound 140], the DSF entry is “***** (>2.5° C.=*****)”.
`Cc1cc(N2CC[C@](C)(c3ccccc3)C2)cn2nc(C(=O)NC3COCC3(C)O)nc12` (some centres unmarked) [Compound 141]: the DSF result is “***** (>2.5° C.=*****)”.
Consider `Cc1cc(N2CC[C@](C)(c3ccccc3)C2)cn2nc(C(=O)N[C@@H]3CCC[C@@H]3O)nc12` [Compound 142], for which the DSF result is listed as “***** (>2.5° C.=*****)”.
The entry for `COC(=O)CC1CCN(C(=O)c2nc3c(C)cc(N4CC[C@](C)(c5ccccc5)C4)cn3n2)C1` (some centres unmarked) [Compound 143] is “***** (>2.5° C.=*****)”; for `Cc1cc(N2CC[C@](C)(c3ccccc3)C2)cn2nc(C(=O)N3CCN(S(C)(=O)=O)CC3)nc12` [Compound 144] it is “***** (>2.5° C.=*****)”; for `Cc1cc(N2CC[C@](C)(c3ccccc3)C2)cn2nc(C(=O)NC3COC4(CCOC4)C3)nc12` (some centres unmarked) [Compound 145] it is “***** (>2.5° C.=*****)”.
Under `Cc1cc(N2CC[C@](C)(c3ccccc3)C2)cn2nc(C(=O)N3CC4(O)CC3C4)nc12` [Compound 146] stands “***** (>2.5° C.=*****)”.
Consider `Cc1cc(N2CC[C@](C)(c3ccccc3)C2)cn2nc(C(=O)NC3CCS(=N)(=O)C3)nc12` (some centres unmarked) [Compound 147], for which the DSF entry is reported as “***** (>2.5° C.=*****)”.
Regarding `COC(CO)CNC(=O)c1nc2c(C)cc(N3CC[C@](C)(c4ccccc4)C3)cn2n1` (some centres unmarked) [Compound 148], the DSF result is given as “***** (>2.5° C.=*****)”.
Consider `Cc1cc(N2CC[C@](C)(c3ccccc3)C2)cn2nc(C(=O)N[C@H]3CNC[C@H]3F)nc12` [Compound 149], for which the DSF result was “***** (>2.5° C.=*****)”.
For the compound `Cc1cc(N2CC[C@](C)(c3ccccc3)C2)cn2nc(C(=O)NC3CNCC3(F)F)nc12` (some centres unmarked) [Compound 150], the DSF result is given as “***** (>2.5° C.=*****)”.
As for `Cc1cc(N2CC[C@](C)(c3ccccc3)C2)cn2nc(C(=O)NC3COC4(CNC4)C3)nc12` (some centres unmarked) [Compound 152], the DSF result is listed as “***** (>2.5° C.=*****)”.
Regarding `Cc1cc(N2CC[C@](C)(c3ccccc3)C2)cn2nc(C(=O)NC(C)(C)CO)nc12` [Compound 153], the DSF entry was “***** (>2.5° C.=*****)”.
In the case of `Cc1cc(N2CC[C@](C)(c3ccccc3)C2)cn2nc(C(=O)NC3CCC(F)(F)C3)nc12` (some centres unmarked) [Compound 154], the DSF entry is on record as “***** (>2.5° C.=*****)”.
As to `Cc1cc(N2CC[C@](C)(c3ccccc3)C2)cn2nc(C(=O)NC34CC(CO)(C3)C4)nc12` [Compound 155], the DSF entry is “***** (>2.5° C.=*****)”.
Turning to `Cc1cc(N2CC[C@](C)(c3ccccc3)C2)cn2nc(C(=O)NC3CCN(N4C[C@@H](O)[C@@H](O)C4)C3)nc12` (some centres unmarked) [Compound 156], the DSF result is listed as “***** (>2.5° C.=*****)”.
Regarding `Cc1cc(N2CC[C@](C)(c3ccccc3)C2)cn2nc(C(=O)N[C@H]3COCC[C@@H]3O)nc12` [Compound 157], the DSF entry is reported as “***** (>2.5° C.=*****)”.
Turning to `Cc1cc(N2CC[C@](C)(c3ccccc3)C2)cn2nc(C(=O)N3CC4C(C3)C4C(=O)O)nc12` (some centres unmarked) [Compound 158], the DSF result was “***** (>2.5° C.=*****)”.
As to `Cc1cc(N2CC[C@](C)(c3ccccc3)C2)cn2nc(C(=O)N3CC[C@@](C)(O)C3)nc12` [Compound 159], the DSF result is on record as “***** (>2.5° C.=*****)”.
For `Cc1cc(N2CC[C@](C)(c3ccccc3)C2)cn2nc(C(=O)N[C@@H]3CC[C@H]3O)nc12` [Compound 160], the DSF entry was “***** (>2.5° C.=*****)”.
The entry for `Cc1cc(N2CC[C@](C)(c3ccccc3)C2)cn2nc(C(=O)N[C@@H]3CC[C@@H]3O)nc12` [Compound 161] is “***** (>2.5° C.=*****)”.
Regarding `Cc1cc(N2CC[C@](C)(c3ccccc3)C2)cn2nc(C(=O)N[C@@H]3CN[C@H](C(C)(C)O)C3)nc12` [Compound 162], the DSF entry was “***** (>2.5° C.=*****)”.
Consider `Cc1cc(N2CC[C@](C)(c3ccccc3)C2)cn2nc(C(=O)NC3(C(=O)O)CC3)nc12` [Compound 163], for which the DSF entry was “***** (>2.5° C.=*****)”.
In the case of `Cc1cc(N2CC[C@](C)(c3ccccc3)C2)cn2nc(C(=O)N(C)C3(C(=O)O)CC3)nc12` [Compound 164], the DSF result was “***** (>2.5° C.=*****)”.
On to `Cc1cc(N2CC[C@](C)(c3ccccc3)C2)cn2nc(C(=O)NCC3(C(=O)O)CC3)nc12` [Compound 165], for which the DSF entry is “***** (>2.5° C.=*****)”.
As for `COC1CNCC1NC(=O)c1nc2c(C)cc(N3CC[C@](C)(c4ccccc4)C3)cn2n1` (some centres unmarked) [Compound 166], the DSF result is listed as “***** (>2.5° C.=*****)”.
Under `Cc1cc(N2CC[C@](C)(c3ccccc3)C2)cn2nc(C(=O)N[C@H]3C[C@](C)(O)C3)nc12` [Compound 167] stands “***** (>2.5° C.=*****)”.
For `Cc1cc(N2CC[C@](C)(c3ccccc3)C2)cn2nc(C(C)(C)OC3CCNC3)nc12` (some centres unmarked) [Compound 168], the DSF result is “**** (>1.5-2.5° C.=****)”.
For the compound `Cc1cc(N2CC[C@](C)(c3ccccc3)C2)cn2nc(C(=O)NC(C)(C)C(=O)O)nc12` [Compound 169], the DSF result is given as “***** (>2.5° C.=*****)”.
As for `CNC(=O)c1nc2c(C)cc(N3CC[C@](C)(c4ccccc4)C3)cn2n1` [Compound 170], the DSF result was “***** (>2.5° C.=*****)”.
Turning to `Cc1cc(N2CC[C@](C)(c3ccccc3)C2)cn2nc(C(=O)NCC34CCCN3CC(F)C4)nc12` (some centres unmarked) [Compound 171], the DSF entry is “***** (>2.5° C.=*****)”.
Under `Cc1cc(N2CC[C@](C)(c3ccccc3)C2)cn2nc(C(=O)NC34COC(C(=O)O)(C3)C4)nc12` [Compound 172] stands “***** (>2.5° C.=*****)”; under `Cc1cc(N2CC[C@](C)(c3ccccc3)C2)cn2nc(C(=O)NC34COC(CO)(C3)C4)nc12` [Compound 173], “***** (>2.5° C.=*****)”.
As for `Cc1cc(N2CC[C@](C)(c3ccccc3)C2)cn2nc(C(=O)N3CC[C@H](O)C3)nc12` [Compound 174], the DSF entry is given as “***** (>2.5° C.=*****)”.
On to `COC(=O)C12CCC(NC(=O)c3nc4c(C)cc(N5CC[C@](C)(c6ccccc6)C5)cn4n3)(C1)C2` [Compound 175], for which the DSF result is “***** (>2.5° C.=*****)”.
Under `Cc1cc(N2CC[C@](C)(c3ccccc3)C2)cn2nc(C(=O)N3CCOC(C(=O)O)C3)nc12` (some centres unmarked) [Compound 176] stands “***** (>2.5° C.=*****)”.
The entry for `Cc1cc(N2CC[C@](C)(c3ccccc3)C2)cn2nc(C(=O)N3CCOC4(CNC4)C3)nc12` [Compound 177] is “***** (>2.5° C.=*****)”.
For `Cc1cc(N2CC[C@](C)(c3ccccc3)C2)cn2nc(C(=O)N3CCCC(C)(C(=O)O)C3)nc12` (some centres unmarked) [Compound 178], the DSF entry was “***** (>2.5° C.=*****)”.
Consider `Cc1cc(N2CC[C@](C)(c3ccccc3)C2)cn2nc(C(=O)NC3CNC(C)(C(=O)O)C3)nc12` (some centres unmarked) [Compound 179], for which the DSF entry is reported as “***** (>2.5° C.=*****)”.
Under `Cc1cc(N2CC[C@](C)(c3ccccc3)C2)cn2nc(C(=O)NC3COCC3(C)C(=O)O)nc12` (some centres unmarked) [Compound 180] stands “***** (>2.5° C.=*****)”; under `Cc1cc(N2CC[C@](C)(c3ccccc3)C2)cn2nc(C(=O)NC34CCC(C(=O)O)(C3)OC4)nc12` (some centres unmarked) [Compound 181], “***** (>2.5° C.=*****)”; under `Cc1cc(N2CC[C@](C)(c3ccccc3)C2)cn2nc(C(=O)N3CCC(OCC(=O)O)CC3)nc12` [Compound 182], “***** (>2.5° C.=*****)”.
Under `Cc1cc(N2CC[C@](C)(c3ccccc3)C2)cn2nc(C(=O)NC34COC(C3)C4)nc12` [Compound 183] stands “***** (>2.5° C.=*****)”; under `Cc1cc(N2CC[C@](C)(c3ccccc3)C2)cn2nc(C(=O)O)nc12` [Compound 184], “** (>0.5-1 °C =**)”; under `Cc1cc(N2CC[C@](C)(c3ccccc3)C2)cn2nc(C(=O)NC34CNCC3C4)nc12` (some centres unmarked) [Compound 185], “***** (>2.5° C.=*****)”.
For `Cc1cc(N2CC[C@](C)(c3ccccc3)C2)cn2nc(C(=O)N[C@@H]3CNCC34CC4)nc12` [Compound 186], the DSF entry was “***** (>2.5° C.=*****)”.
Under `Cc1cc(N2CC[C@](C)(c3ccccc3)C2)cn2nc(C(=O)N[C@H]3CNCC34CC4)nc12` [Compound 187] stands “***** (>2.5° C.=*****)”; under `CCC(=O)N1CCC(NC(=O)c2nc3c(C)cc(N4CC[C@](C)(c5ccccc5)C4)cn3n2)CC1` [Compound 188], “***** (>2.5° C.=*****)”; under `Cc1cc(N2CC[C@](C)(c3ccccc3)C2)cn2nc(C(=O)NC3(C)CCNC3)nc12` (some centres unmarked) [Compound 189], “***** (>2.5° C.=*****)”.
As for `Cc1cc(N2CC[C@](C)(c3ccccc3)C2)cn2nc(C(=O)NC3CCN(c4cncnc4)C3)nc12` (some centres unmarked) [Compound 190], the DSF entry was “***** (>2.5° C.=*****)”.
